Results taken from article doi:10.1101/2022.10.08.511406v1 (biorxiv, 2022).

Molecular target: T1, YTH domain of YTHDF1 (Homo sapiens, UniProt Q9BYJ9)
T1 sequence (Q9BYJ9 361-559): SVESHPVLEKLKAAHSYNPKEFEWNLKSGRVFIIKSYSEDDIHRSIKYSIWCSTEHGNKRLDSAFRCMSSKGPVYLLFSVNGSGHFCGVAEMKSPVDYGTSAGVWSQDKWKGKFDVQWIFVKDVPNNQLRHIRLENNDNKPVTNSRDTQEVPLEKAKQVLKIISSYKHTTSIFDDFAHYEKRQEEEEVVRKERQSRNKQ
Experiment: SPR competition
Assay type: binding

`CCCCCNC(=N)N/N=C/c1c[nH]c2ccc(OC)cc12` [tegaserod] showed an IC50 of 13.8 µM.
